ChEMBL document CHEMBL6096672, “In Silico Enabled Discovery of KAI-11101, a Preclinical DLK Inhibitor for the Treatment of Neurodegenerative Disease and Neuronal Injury” (J Med Chem, 2025)

Assays:
[1] = Protection against paclitaxel-induced axon degeneration in C57/Bl6 mouse DRG neurons at 0.74 uM measured after 72 hrs by immunofluorescence based analysis relative to control; assay type: functional; conditions: C57/Bl6, DRG neuron
[2] = Inhibition of DLK in C57/Bl6 mouse DRG neuron model of paclitaxel-induced axon degeneration assessed as decrease in p-cJun level measured after 20 hrs by immunofluorescence based analysis; assay type: cell-based
[3] = Intrinsic clearance in human liver microsomes; assay type: ADME, Microsome; conditions: read-out: CLH
[4] = Unbound fraction in mouse brain at 3 to 75 mg/kg, po measured after 2 hrs; assay type: ADME, organism-based; conditions: in vivo, dose 3-75 mg/kg
[5] = Ratio of unbound drug concentration in brain to plasma of rat; assay type: ADME; conditions: brain and plasma, read-out: K(p,uu,brain)
[6] = Oral bioavailability in dog; assay type: ADME, organism-based, Canis lupus familiaris; conditions: in vivo
[7] = Volume of distribution at steady state in IV-dosed dog; assay type: ADME, Canis lupus familiaris; conditions: in vivo, read-out: Vdss
[8] = Half life in IV-dosed cynomolgous monkey; assay type: ADME, Macaca fascicularis; conditions: cynomolgus monkey, in vivo
[9] = Intrinsic clearance in dog liver microsomes; assay type: ADME, Canis lupus familiaris, Microsome; conditions: read-out: CLH
[10] = Half life in IV-dosed rat; assay type: ADME; conditions: in vivo
[11] = In vivo inhibition of DLK in mouse cerebellum at 3 to 75 mg/kg, po measured after 2 hrs; assay type: functional, organism-based
[12] = Inhibition of human DLK transfected in HEK293-T-REx cells assessed as decrease in JNK phosphorylation incubated for 5 hrs by HTRF assay; assay type: cell-based
[13] = Inhibition of GST-tagged LZK (1 to 966 residues)(unknown origin) using MKK4 as substrate preincubated for 60 mins followed by substrate/ATP addition measured after 30 mins by HTRF assay; design: species or system Homo sapiens
[14] = Total unbound drug concentration in mouse brain at 3 to 75 mg/kg, po measured after 2 hrs; assay type: ADME, organism-based; conditions: in vivo, dose 3-75 mg/kg
[15] = Intrinsic clearance in mouse liver microsomes; assay type: ADME, Microsome; conditions: read-out: CLH
[16] = Ratio of unbound drug concentration in brain to plasma of CD-1 mouse at 5 to 75 mg/kg, po; assay type: ADME, organism-based; conditions: brain and plasma, dose 5-75 mg/kg, read-out: K(p,uu,brain)
[17] = Volume of distribution at steady state in IV-dosed cynomolgous monkey; assay type: ADME, Macaca fascicularis; conditions: cynomolgus monkey, in vivo, read-out: Vdss
[18] = Oral bioavailability in rat; assay type: ADME, organism-based; conditions: in vivo
[19] = Volume of distribution at steady state in IV-dosed rat; assay type: ADME; conditions: in vivo, read-out: Vdss
[20] = Half life in IV-dosed dog; assay type: ADME, Canis lupus familiaris; conditions: in vivo
[21] = Volume of distribution at steady state in IV-dosed mouse; assay type: ADME; conditions: in vivo, read-out: Vdss
[22] = Total drug concentration in mouse brain at 3 to 75 mg/kg, po measured after 2 hrs; assay type: ADME, organism-based; conditions: dose 3-75 mg/kg, read-out: Ct
[23] = Half life in IV-dosed mouse; assay type: ADME; conditions: in vivo
[24] = Protection against paclitaxel-induced axon degeneration in C57/Bl6 mouse DRG neurons measured after 72 hrs by immunofluorescence based analysis; assay type: functional, cell-based; conditions: drg neuron
[25] = Drug metabolism in dog hepatocytes assessed as formation of N-methylated metabolites; assay type: ADME, cell-based, Canis lupus familiaris, Hepatocyte
[26] = Clearance in IV-dosed dog; assay type: ADME, Canis lupus familiaris; conditions: in vivo
[27] = Clearance in IV-dosed cynomolgous monkey; assay type: ADME, Macaca fascicularis; conditions: cynomolgus monkey, in vivo
[28] = Oral bioavailability in mouse; assay type: ADME, organism-based; conditions: in vivo
[29] = Oral bioavailability in cynomolgous monkey; assay type: ADME, organism-based, Macaca fascicularis; conditions: cynomolgus monkey, in vivo
[30] = Clearance in IV-dosed rat; assay type: ADME; conditions: in vivo
[31] = Clearance in IV-dosed mouse; assay type: ADME; conditions: in vivo
[32] = Drug metabolism in rat hepatocytes assessed as formation of N-methylated metabolites; assay type: ADME, cell-based, Hepatocyte
[33] = Drug metabolism in cynomolgous monkey hepatocytes assessed as formation of N-methylated metabolites; assay type: ADME, cell-based, Macaca fascicularis, Hepatocyte; conditions: cynomolgus monkey
[34] = Inhibition of GST-tagged DLK (1 to 520 residues)(unknown origin) using MKK4 as substrate preincubated for 60 mins followed by substrate/ATP addition measured after 30 mins by HTRF assay; design: species or system Homo sapiens
[35] = Drug metabolism in human hepatocytes assessed as formation of N-methylated metabolites; assay type: ADME, cell-based, Hepatocyte
[36] = molecular target: Voltage-gated inwardly rectifying potassium channel KCNH2 (Homo sapiens, UniProt Q12809); test: Inhibition of hERG by patch-clamp method; assay type: toxicity
Chain of Voltage-gated inwardly rectifying potassium channel KCNH2 (Q12809 whole entry): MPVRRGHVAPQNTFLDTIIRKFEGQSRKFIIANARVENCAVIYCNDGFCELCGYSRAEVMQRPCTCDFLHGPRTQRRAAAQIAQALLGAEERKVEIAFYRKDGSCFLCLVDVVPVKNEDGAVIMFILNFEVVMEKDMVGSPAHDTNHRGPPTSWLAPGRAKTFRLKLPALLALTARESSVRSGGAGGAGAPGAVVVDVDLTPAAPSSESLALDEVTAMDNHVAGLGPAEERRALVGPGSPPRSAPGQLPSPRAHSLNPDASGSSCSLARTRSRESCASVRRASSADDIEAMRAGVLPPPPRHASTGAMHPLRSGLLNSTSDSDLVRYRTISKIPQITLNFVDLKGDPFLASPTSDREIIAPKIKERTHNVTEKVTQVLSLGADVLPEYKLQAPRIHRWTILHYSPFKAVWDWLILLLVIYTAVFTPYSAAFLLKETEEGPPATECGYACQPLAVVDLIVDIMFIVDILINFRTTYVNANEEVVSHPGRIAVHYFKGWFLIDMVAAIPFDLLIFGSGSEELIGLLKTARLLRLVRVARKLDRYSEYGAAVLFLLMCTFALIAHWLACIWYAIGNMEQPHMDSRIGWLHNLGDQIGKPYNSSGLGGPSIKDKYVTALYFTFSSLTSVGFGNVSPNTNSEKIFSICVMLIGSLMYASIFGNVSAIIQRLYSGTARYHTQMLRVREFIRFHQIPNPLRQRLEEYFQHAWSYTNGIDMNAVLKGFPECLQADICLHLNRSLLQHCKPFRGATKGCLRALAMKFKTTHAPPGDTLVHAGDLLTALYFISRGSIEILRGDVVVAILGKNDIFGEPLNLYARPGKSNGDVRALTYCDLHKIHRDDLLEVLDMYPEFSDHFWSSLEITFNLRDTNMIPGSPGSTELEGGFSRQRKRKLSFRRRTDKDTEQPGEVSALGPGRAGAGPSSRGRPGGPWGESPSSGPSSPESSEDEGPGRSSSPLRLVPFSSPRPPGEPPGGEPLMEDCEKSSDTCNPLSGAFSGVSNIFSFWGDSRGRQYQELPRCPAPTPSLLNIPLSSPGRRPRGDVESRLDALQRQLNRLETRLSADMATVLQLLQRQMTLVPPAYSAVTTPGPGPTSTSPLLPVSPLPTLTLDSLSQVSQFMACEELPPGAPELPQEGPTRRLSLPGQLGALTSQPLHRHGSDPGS

[37] = Cytotoxicity against human HepG2 cells; assay type: toxicity, cell-based
CYP3A [38] = molecular target: T1, CYP3A (Homo sapiens, UniProt P08684+P20815+P24462+Q9HB55); test: Binding affinity to CYP3A in human liver microsomes assessed as inactivation constant; assay type: ADME, Microsome
CYP3A [39] = molecular target: T1, CYP3A; test: Binding affinity to CYP3A in human liver microsomes assessed as inhibition constant; assay type: ADME, Microsome
[40] = Drug metabolism in PO-dosed dog plasma assessed as formation of N-methylated metabolites; assay type: ADME, Canis lupus familiaris
CYP3A4 = CYP3A4 (Homo sapiens, UniProt P08684); test: Time dependent inhibition of CYP3A4 (unknown origin) at 30 uM incubated for 30 mins relative to control; assay type: ADME; conditions: read-out: TDI
Chain of CYP3A4 (P08684 whole entry): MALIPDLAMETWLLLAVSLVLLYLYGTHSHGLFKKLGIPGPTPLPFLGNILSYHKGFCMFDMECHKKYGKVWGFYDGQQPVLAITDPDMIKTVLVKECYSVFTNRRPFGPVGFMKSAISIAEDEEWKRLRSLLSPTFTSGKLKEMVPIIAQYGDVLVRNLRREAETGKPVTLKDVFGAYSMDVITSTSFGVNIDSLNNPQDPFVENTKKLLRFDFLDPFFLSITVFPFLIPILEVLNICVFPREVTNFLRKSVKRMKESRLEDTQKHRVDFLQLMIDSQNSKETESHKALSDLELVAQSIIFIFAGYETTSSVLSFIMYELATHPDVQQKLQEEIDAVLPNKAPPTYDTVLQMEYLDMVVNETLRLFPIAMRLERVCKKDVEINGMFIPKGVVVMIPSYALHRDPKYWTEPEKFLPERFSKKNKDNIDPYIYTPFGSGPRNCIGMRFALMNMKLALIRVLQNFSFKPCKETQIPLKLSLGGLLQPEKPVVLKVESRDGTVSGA

Compound: CCn1nc(-c2cnc(N)c(OC(F)F)c2)c2ccn([C@@H]3CCC(F)(F)C[C@@H]3OC)c(=O)c21
- Emax at 0.74 µM [1]: 72%
- IC50 [2]: 95 nM
- microsomal CLint [3]: < 3 µL/min/mg
- Fu [4]: 1.5%
- Kp uu [5]: 0.6
- bioavailability [6]: 81%
- Vd [7]: 8.8 L/kg
- half-life [8]: 12 h
- microsomal CLint [9]: 5.8 µL/min/mg
- half-life [10]: 7.2 h
- IC50 [11]: 31 nM
- IC50 [12]: 51 nM
- Ki [13]: 15 nM
- Drug uptake(free) [14]: 14.5 ng/g
- microsomal CLint [15]: 18 µL/min/mg
- Kp uu [16]: 0.3
- Vd [17]: 4.8 L/kg
- bioavailability [18]: 57%
- Vd [19]: 4.3 L/kg
- half-life [20]: 6.6 h
- Vd [21]: 1.6 L/kg
- concentration at 2 h [22]: 1000 ng/g
- half-life [23]: 4.8 h
- EC50 [24]: 363 nM
- Drug metabolism [25]: metabolite_detected
- clearance [26]: 24 mL/min/kg
- clearance [27]: 5.5 mL/min/kg
- bioavailability [28]: 53%
- bioavailability [29]: 52%
- clearance [30]: 8.3 mL/min/kg
- clearance [31]: 5.3 mL/min/kg
- Drug metabolism [32]: metabolite_detected
- Drug metabolism [33]: metabolite_detected
- Ki [34]: 0.69 nM
- Drug metabolism [35]: metabolite_detected
- IC50 [36]: 9000 nM
- IC50 [37]: 52000 nM
- kinact (CYP3A [38]): 0.00117 s⁻¹
- Ki (CYP3A [39]): 170000 nM
- Drug metabolism [40]: metabolite_detected
- inhibition at 0.5 h, 30 µM (CYP3A4): 27.5%
